Results from ChEMBL document CHEMBL6074635, “Replacement of the essential nitro group by electrophilic warheads towards nitro-free antimycobacterial benzothiazinones” (Eur J Med Chem, 2024).

What was measured:
[1] = target: T1, Decaprenylphosphoryl-beta-D-ribose oxidase (Mycobacterium tuberculosis (strain ATCC 25618 / H37Rv)) (UniProt P9WJF1); assay: Reversible inhibition of recombinant Mycobacterium tuberculosis DprE1 extracted from Escherichia coli BL21(DE3) using FPR/GGPR as substrate by measuring fold change incubated for 60 mins by resazurin dye based fluorescence plate reader analysis relative to (S)-2-Fluoro-N-(2-(2-methyl-1,4-dioxa-8-azaspiro[4.5]decan-8-yl)-4-oxo-6-(trifluoromethyl)-4H-benzo[e][1,3]thiazin-8-yl)acrylamide
T1 sequence (whole entry): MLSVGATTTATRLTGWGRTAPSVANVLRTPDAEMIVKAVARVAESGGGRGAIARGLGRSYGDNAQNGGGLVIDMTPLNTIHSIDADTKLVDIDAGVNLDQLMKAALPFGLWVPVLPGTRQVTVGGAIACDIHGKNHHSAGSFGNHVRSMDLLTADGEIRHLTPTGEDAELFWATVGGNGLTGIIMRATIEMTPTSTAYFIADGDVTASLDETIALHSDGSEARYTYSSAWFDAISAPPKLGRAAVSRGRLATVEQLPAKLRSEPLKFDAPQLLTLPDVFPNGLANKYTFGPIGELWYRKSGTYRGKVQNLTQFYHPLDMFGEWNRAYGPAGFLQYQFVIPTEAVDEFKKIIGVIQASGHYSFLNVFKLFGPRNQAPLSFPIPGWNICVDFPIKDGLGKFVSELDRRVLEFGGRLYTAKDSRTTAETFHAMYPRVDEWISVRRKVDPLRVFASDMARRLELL

[2] = target: T1, Decaprenylphosphoryl-beta-D-ribose oxidase (Mycobacterium tuberculosis (strain ATCC 25618 / H37Rv)); assay: Covalent inhibition of recombinant Mycobacterium tuberculosis DprE1 extracted from Escherichia coli BL21(DE3) assessed as inactivation rate constant (Kinact) using FPR/GGPR as substrate incubated for 60 mins by resazurin dye based fluorescence plate reader analysis
[3] = target: T1, Decaprenylphosphoryl-beta-D-ribose oxidase (Mycobacterium tuberculosis (strain ATCC 25618 / H37Rv)); assay: Covalent inhibition of recombinant Mycobacterium tuberculosis DprE1 extracted from Escherichia coli BL21(DE3) assessed as Kinact/Ki ratio using FPR/GGPR as substrate incubated for 60 mins by resazurin dye based fluorescence plate reader analysis
[4] = target: T1, Decaprenylphosphoryl-beta-D-ribose oxidase (Mycobacterium tuberculosis (strain ATCC 25618 / H37Rv)); assay: Substrate activity at recombinant Mycobacterium tuberculosis DprE1 extracted from Escherichia coli BL21(DE3) assessed as fold change in Km incubated for 60 mins by resazurin dye based fluorescence plate reader analysis relative to FPR

SMILES: C=CS(=O)(=O)Nc1cc(C(F)(F)F)cc2c(=O)nc(N3CCC4(CC3)OC[C@H](C)O4)sc12
- fold change (FC) [1]: 8

SMILES: C[C@H]1COC2(CCN(c3nc(=O)c4cc(C(F)(F)F)cc(NC(=O)C(C)(C)Br)c4s3)CC2)O1
- Kinact [2]: 0.067 min⁻¹
- Ratio [3]: 2.13 M⁻¹ s⁻¹

SMILES: CC(C)=CCC/C(C)=C/CC/C(C)=C/CC/C(C)=C/COP(=O)(O)OC1O[C@H](CO)[C@@H](O)[C@H]1O (some centres undefined)
- fold change (FC) [4]: 22
